Measurements taken from patent publication US7291456B2, “Method for determining differences in molecular interactions and for screening a combinatorial library” (The Regents of the University of California, priority 2002, dated 2007).

Test system: human plasma
Experiment: One-bead-one-compound cXXXXXc peptide library screening, biotinylated serum (first mixture) then plasma (target mixture), BCIP staining and (B-A)/A image analysis
Format: binding
Conditions: 4 μg biotinylated serum, then 4 μg biotinylated plasma, 1 hour each at 23° C., sequence by automated peptide sequencing
From the text: General Method. The two mixtures of molecules to be compared were human plasma, referred to as “the target mixture,” and human serum, referred to as “the first mixture.” Both the plasma and serum were biotinylated with EZ-Link™ Sulfo-NHS-LC-Biotin from Pierce. Bead libraries were generated on TenteGel from Rapp Polymere. Amino acids used in bead library synthesis were from Synpep. Bead library screenings were done in disposable polypropylene columns from Perkin Elmer Life Sciences. All buffer reagents were from Sigma unless otherwise noted. PBS, TBS and BCIP buffers were as described in Lam, Kit S. and Michal Lebl, “Synthesis of a one-bead one-compound combinatorial peptide library,” Methods in Molecular Biology, vol. 87, Combinatorial Peptide Library Protocols. Edited by Shmuel Cabilly (Humana Press: 1997), 1-6. Bead staining utilized BCIP from Bio Synth AG which was hydrolyzed with streptavidin-alkaline phosphatase conjugate from Zymed. Bead immobilization was done in SeaPlaque agarose from Bio Wittaker Molecular Applications in Omni tray lids from Nunc/Nalgene. Scanned images were generated on a flatbed transparency scanner from Umax. Computer imaging was accomplished with Adobe Photoshop and compiler software was from Metrowerks. Amino acid sequencing was done on an Applied Biosystems Procise 494 Protein Sequencer.
Library Synthesis. “One-bead-one-compound” cXXXXXc peptide libraries were synthesized essentially as described (Lam and Lebl, Methods in Molecular Biology, vol. 87) using the “split synthesis approach,” where “X” denotes any L-amino acid except for cysteine, arginine, and lysine, and “c” is D-cysteine. TenteGel was used as a solid support and standard Fmoc chemistry was used for the solid phase peptide synthesis reactions. (Stewart and Young 1984. Solid-Phase Peptide Synthesis. Pierce Chemical Co. Atherton, E. and R. C. Sheppard. 1989. Solid Phase Peptide Synthesis: A Practical Approach. Practical Approach Series.)
Extract Preparation and Biotinlation. Human plasma and serum were prepared by the collection of human blood into stoppered vacuum tubes in the presence of Na-heparin as an anti-coagulant for plasma and in the absence of Na-heparin for serum. Blood was allowed to clot in the tubes for 25 minutes after which the top layer of […] was collected. Na-heparin was added to the serum to equalize the amount of Na-heparin in plasma and serum after which both samples were centrifuged at 1000 rpm for 20 minutes in a Sorvall SS34 centrifuge rotor. After centrifugation, samples were aliquoted, dialyzed against PBS for four hours at 4° C., quantitated and stored frozen at −80° C. The concentrations of the plasma and serum protein extracts after dialysis were 66.5 and 57.8 mg/ml, respectively.
Plasma and serum were tagged using biotinylation where biotin was the label and streptavidin alkaline phosphatase conjugate was the label binder. Biotinylation was performed according to the manufacturer's instructions. About 0.2 mg of protein was incubated in PBS with a 20-fold molar excess of sulfo-NHS-LC-biotin for 30 minutes at 23° C. The reaction was quenched by the addition of Tris-HCl pH 7.9 to 100 mM. For calculations of molarity, the average molecular weight of the proteins in the plasma and serum solutions was assumed to be 50 kD.
Library Screening. Four experiments were conducted. On average, 250,000 “one-bead-one-compound” beads were screened in each experiment. All bead reactions were performed in 1.5 ml polypropylene disposable micro-columns with inside dimensions of 37 mm×6 mm. Unless otherwise noted, all bead reactions were incubated on a Lab quake bench top rotator (Barnstead/Thermolyne) for 1 hour at 23° C. Bead libraries were stored in PBS with 0.05% sodium-azide. All incubation buffers and components were thoroughly mixed before addition to the column containing the bead library. […]

| Substance | ligands identified on true positive beads (beads that bound molecules essentially unique to the plasma) |
| --- | --- |
| cPFHHSc | identified |
| cNLTHIc | identified |
| cMHGHFc | identified |
| cAHVWHc | identified |
| cHTLHQc | identified |
| cGIHYLc | identified |
| cFHNNHc | identified |
| cHYHVSc | identified |
| cYGHFSc | identified |
| cHGHTIc | identified |
| cHYQTGc | identified |
| cHVHPWc | identified |
